Assay results from patent publication US8632789B2, “System and method for delivery of DNA-binding chemotherapy drugs using nanoparticles” (Syracuse University, priority 2010, dated 2014).

Experiment: Thermal denaturation (melting) of DNA-capped AuNP by UV-vis at 260 nm as a function of DOX loading
Type: physicochemical
Details: control studies, r=12; [DOX]=5.9 μM; [AuNP]=13.7 nM
Protocol: To probe the uptake of DOX via intercalation to 1ab-AuNP, we investigated the thermal denaturation of the 1ab strands by measuring increase in extinction at 260 nm using UV-visible spectroscopy (UV-vis).
We next utilized the 1ab- or 2ab-AuNP prepared above, with dsDNA-functionalization, for drug (DOX) loading. For each DOX binding and melting experiment, 1ab- or 2ab-AuNP were incubated for 40 min with DOX at specific ratios, r=[DOX]/[1ab/2ab]. In this study, we explored r=0-12, based on the number of 1ab per AuNP, as well as the number of binding sites at each 1ab. Next, each DOX-1ab-AuNP was analyzed via thermal denaturation melting experiments using temperature controlled UV-vis at Abs=260 nm and a heating rate of 1° C./min from 25° C. to 80° C. Each melting temperature was taken as the maximum of a peak-fitted first derivative plot of its corresponding melting curve (using PeakFit® Peak Separation and Analysis Software, V.4.12).
UV-visible Absorption (UV-vis): The UV-vis measurements were collected on a Varian Cary100 Bio UV-vis spectrophotometer between 200-900 nm. The instrument is equipped with an 8-cell automated holder with high precision Peltier heating controller.

COc1cccc2c1C(=O)c1c(O)c3c(c(O)c1C2=O)C[C@@](O)(C(=O)CO)C[C@@H]3O[C@H]1C[C@H](N)[C@H](O)[C@H](C)O1 [DOX, doxorubicin]
Cooperative melting in the temperature range of ~55-65° C.: not observed
